Assay results reported in paper PMC3502340, “Agglutinating Activity and Structural Characterization of Scalarin, the Major Egg Protein of the Snail Pomacea scalaris (d’Orbigny, 1832)” (PLoS ONE, 2012).

Test system: T1, scalarin (PsSC)
T1 construct: native, purified from newly laid egg clutches (ultracentrifugation, size exclusion); 380 kDa glycosylated carotenoprotein oligomer of 35, 28 and 24 kDa subunits
Experiment: inhibition of rabbit erythrocyte hemagglutination (titre)
Type: cell-based, Pomacea scalaris
Conditions: 200000 µM, TBS pH 7.4, 37 °C, 1 h preincubation, 2% rabbit erythrocytes
Text: inhibition of rabbit erythrocyte hemagglutination (titre) on scalarin (PsSC)

In the case of `N[C@H]1C(O)O[C@H](CO)[C@@H](O)[C@@H]1O` (stereo partly drawn) [glucosamine], the “% Inhibition” value is reported as 99.6%.
For `N[C@H]1C(O)O[C@H](CO)[C@H](O)[C@@H]1O` (stereo partly drawn) [galactosamine], the “% Inhibition” value (text prints 99.99%) was 99.9%.
With `CC(=O)N[C@H]1C(O)O[C@H](CO)[C@H](O)[C@@H]1O` (stereo partly drawn) [N-acetyl-D-galactosamine] the “% Inhibition” value was 50.0%.
